We go through two compounds from article PMC6303390, “Nucleotide-dependent DNA gripping and an end-clamp mechanism regulate the bacteriophage T4 viral packaging motor” (Nature Communications, 2018).

The target of test [1] is T1, bacteriophage T4 packaging motor (gp17 on emptied T4 heads) (Tequatrovirus T4, UniProt P17312).
T1 construct: gene 17; N-terminally His-tagged recombinant gp17 from E. coli, assembled as pentamer on emptied heads (10am13am mutant phage) that carry the gp20 portal; with Portal protein
T1 sequence (P17312 whole entry): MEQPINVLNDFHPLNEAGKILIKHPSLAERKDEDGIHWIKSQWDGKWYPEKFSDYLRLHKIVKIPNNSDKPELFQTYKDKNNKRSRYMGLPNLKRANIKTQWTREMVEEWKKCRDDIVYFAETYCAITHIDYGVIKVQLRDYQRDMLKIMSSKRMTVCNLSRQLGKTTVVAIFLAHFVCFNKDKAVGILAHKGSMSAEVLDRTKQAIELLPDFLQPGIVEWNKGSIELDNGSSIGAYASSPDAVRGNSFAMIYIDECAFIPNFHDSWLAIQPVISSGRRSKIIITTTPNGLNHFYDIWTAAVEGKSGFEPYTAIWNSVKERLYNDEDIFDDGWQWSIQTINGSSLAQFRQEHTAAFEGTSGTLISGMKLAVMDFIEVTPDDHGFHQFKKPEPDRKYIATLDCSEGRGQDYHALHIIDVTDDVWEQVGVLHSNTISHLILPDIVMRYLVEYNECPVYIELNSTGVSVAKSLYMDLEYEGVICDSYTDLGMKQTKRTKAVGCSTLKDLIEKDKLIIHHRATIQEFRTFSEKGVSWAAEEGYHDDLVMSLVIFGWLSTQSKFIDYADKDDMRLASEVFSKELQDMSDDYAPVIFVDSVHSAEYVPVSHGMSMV
In words: optical tweezers single-DNA grip/slip assay with solution exchange. The test is classed as binding. To be noted: 0.5 mM ADP, 5 pN force; 50 mM Tris-HCl pH 7.5, 5 mM MgCl2, 80 mM NaCl.

Test [2] concerns the target T1, bacteriophage T4 packaging motor (gp17 on emptied T4 heads). In words: optical tweezers single-DNA packaging assay. Type of test: biochemical. To be noted: ATP-driven DNA translocation; 50 mM Tris-HCl pH 7.5, 5 mM MgCl2, 80 mM NaCl.

The structures appear in SMILES notation.

Regarding `Nc1ncnc2c1ncn2[C@@H]1O[C@H](COP(=O)(O)OP(=O)(O)O)[C@@H](O)[C@H]1O` [ADP], the “optical tweezers single-DNA grip/slip assay with solution exchange” value in test [1] is “when ADP is used highly intermittent gripping is observed”.
As to `Nc1ncnc2c1ncn2[C@@H]1O[C@H](COP(=O)(O)OP(=O)(O)OP(=O)(O)O)[C@@H](O)[C@H]1O` [ATP], in test [2], the “optical tweezers single-DNA packaging assay” value was “In each case the motor restarts when the complex is moved back into ATP”.
